11 compounds from ChEMBL document CHEMBL3132795, “Synthesis, functional and binding profile of (R)-apomorphine based homobivalent ligands targeting the dopamine D2 receptor” (Medchemcomm, 2013) can be followed below.

pEC50, pIC50: −log10 of the molar value.

The target of experiment [1] is T1, D(2) dopamine receptor (Homo sapiens, UniProt P14416). In words: Displacement of [3H]spiperone from human recombinant dopamine D2L receptor expressed in CHOFlpIn cells after 3 hrs by liquid scintillation counting. Format: cell-based.
Experiment [2] has as its target T1, D(2) dopamine receptor. Briefly: Agonist activity at human recombinant dopamine D2L receptor expressed in CHOFlpIn cells assessed as ERK1/2 phosphorylation by alphascreen assay. Type of experiment: cell-based. On the technique in general: Alpha assays give light when donor and acceptor beads are brought close together.

T1 sequence (P14416 whole entry): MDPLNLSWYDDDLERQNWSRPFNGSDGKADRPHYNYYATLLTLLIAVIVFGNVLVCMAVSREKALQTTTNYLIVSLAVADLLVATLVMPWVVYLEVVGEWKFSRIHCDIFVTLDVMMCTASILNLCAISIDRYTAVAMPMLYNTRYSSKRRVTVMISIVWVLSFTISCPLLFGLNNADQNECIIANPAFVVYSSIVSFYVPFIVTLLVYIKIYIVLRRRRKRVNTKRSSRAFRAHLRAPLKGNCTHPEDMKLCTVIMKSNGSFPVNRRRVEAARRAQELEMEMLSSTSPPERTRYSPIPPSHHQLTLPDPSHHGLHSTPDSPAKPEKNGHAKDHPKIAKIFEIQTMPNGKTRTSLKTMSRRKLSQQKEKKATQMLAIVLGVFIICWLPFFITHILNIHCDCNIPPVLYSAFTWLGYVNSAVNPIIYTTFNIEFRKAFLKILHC

As usually defined, the pIC50 is −log10 of the IC50, conventionally taken in molar units. One may read the pEC50 as the negative decadic logarithm of the EC50, by convention in mol/L. On to `CN1CCc2cccc3c2[C@H]1Cc1ccc(OCCCNC(=O)CCCCCNC(=O)OC(C)(C)C)c(O)c1-3`, for which, on D(2) dopamine receptor [1], the pIC50 is 5.18. Further, the negative logarithm of the EC50 (pEC50) on D(2) dopamine receptor [2] is 6.58.

As to `CN1CCc2cccc3c2[C@H]1Cc1ccc(OCCCNC(=O)CCCCCCCCCCCCCCCCCCC(=O)NCCCOc2ccc4c(c2O)-c2cccc5c2[C@@H](C4)N(C)CC5)c(O)c1-3`, the pIC50 on D(2) dopamine receptor [1] was 5.81. At D(2) dopamine receptor [2], the pEC50 is 6.61.

In the case of `CN1CCc2cccc3c2[C@H]1Cc1ccc(OCCCNC(=O)CCCCCCCCCCC(=O)NCCCOc2ccc4c(c2O)-c2cccc5c2[C@@H](C4)N(C)CC5)c(O)c1-3`, on D(2) dopamine receptor [1], the pIC50 is 6.74. Also, the pEC50 on D(2) dopamine receptor [2] is 6.96.

As for `CN1CCc2cccc3c2[C@H]1Cc1ccc(OCCCN)c(O)c1-3`, at D(2) dopamine receptor [2], the pEC50 is 8.00.

For `CN1CCc2cccc3c2[C@H]1Cc1ccc(OCCCNC(=O)CCCCC(=O)NCCCOc2ccc4c(c2O)-c2cccc5c2[C@@H](C4)N(C)CC5)c(O)c1-3`, on D(2) dopamine receptor [1], the pIC50 is 5.27. Further, the pEC50 on D(2) dopamine receptor [2] is 6.83.

For the compound `CN1CCc2cccc3c2[C@H]1Cc1ccc(OCCCNC(=O)CCCCCCCCCCCCCCCCC(=O)NCCCOc2ccc4c(c2O)-c2cccc5c2[C@@H](C4)N(C)CC5)c(O)c1-3`, the pIC50 on D(2) dopamine receptor [1] was 5.57. Also, the pEC50 on D(2) dopamine receptor [2] was 6.41.

For `CC(=O)NCCCOc1ccc2c(c1O)-c1cccc3c1[C@@H](C2)N(C)CC3`, the negative-log EC50 (pEC50) at D(2) dopamine receptor [2] was 6.88.

Turning to `CN1CCc2cccc3c2[C@H]1Cc1ccc(OCCCNC(=O)CCCCCCCCC(=O)NCCCOc2ccc4c(c2O)-c2cccc5c2[C@@H](C4)N(C)CC5)c(O)c1-3`, the pIC50 at D(2) dopamine receptor [1] was 5.87. The pEC50 on D(2) dopamine receptor [2] was 7.10.

`CN1CCc2cccc3c2[C@H]1Cc1ccc(OCCCNC(=O)CCCCCCC(=O)NCCCOc2ccc4c(c2O)-c2cccc5c2[C@@H](C4)N(C)CC5)c(O)c1-3`: the pIC50 at D(2) dopamine receptor [1] is 5.44. Also, the pEC50 at D(2) dopamine receptor [2] was 6.38.

Consider `CN1CCc2cccc3c2[C@H]1Cc1ccc(OCCCNC(=O)CCCCCCCCCCCCC(=O)NCCCOc2ccc4c(c2O)-c2cccc5c2[C@@H](C4)N(C)CC5)c(O)c1-3`, for which the pEC50 at D(2) dopamine receptor [2] was 6.65.

On to `CN1CCc2cccc3c2[C@H]1Cc1ccc(OCCCNC(=O)CCC(=O)NCCCOc2ccc4c(c2O)-c2cccc5c2[C@@H](C4)N(C)CC5)c(O)c1-3`, for which the pIC50 at D(2) dopamine receptor [1] is 5.36. Besides, on D(2) dopamine receptor [2], the pEC50 was 6.40.
